Measured values taken from patent US5112833A, “1-azaindolizine derivatives, synthetic intermediates thereof and antiallergic agents containing 1-azaindolizine derivatives” (Zenyaku Kogyo Kabushiki Kaisha, priority 1988, dated 1992).
Where a name gives a salt, the structure may show the parent alone.

System: not listed separately
Assay: Acute toxicity test (LD50)
Conditions: mouse, in vivo; intravenous via tail vein, male ICR mice, 10 days' observation
Procedure: Acute toxicity tests of the compounds of the present invention were carried out as described below. Groups of 5 male ICR mice, 5 weeks old and weighing 30±5 g, were used. The samples dissolved in physiological saline were injected intravenously via tail vein of the mice. Each LD50 was determined through 10 days' observation.
Work on `Cc1cccn2c(C=C(C#N)C(=O)O)c(OC(C)C)nc12` [Sample 2, Sodium salt of 3-(2-carboxy-2-cyanovinyl)-2-isopropoxy-8-methylimidazo[1,2-a]pyridine] yielded an LD50 at 240 h of about 150 mg/kg.
In the case of `COc1cccn2c(C=C(C#N)C(=O)O)c(OC(C)C)nc12` [Sample 3, Sodium salt of 3-(2-carboxy-2-cyanovinyl)-2-isopropoxy-8-methoxyimidazo[1,2-a]pyridine], the LD50 at 240 h is reported as about 350 mg/kg.
`CC(C)Oc1nc2c(OC(C)C)cccn2c1C=C(C#N)C(=O)O` [Sample 5, Sodium salt of 3-(2-carboxy-2-cyanovinyl)-2,8-diisopropoxyimidazo[1,2-a]pyridine] gave an LD50 at 240 h of about 220 mg/kg.

System: homologous passive cutaneous anaphylaxis (PCA) reaction
Assay: Inhibition of homologous passive cutaneous anaphylaxis (PCA) reaction
Format: in vivo, male Wistar rats
Conditions: Rattus norvegicus, 0.5 h; 20 mg/kg, intravenous, rats, immediately before ovalbumin challenge; *P < 0.02, **P < 0.005; read-out: Inhibition (%) of leaked amount of dye in PCA reaction
Procedure: The antiallergic action of the compounds of the present invention obtained by the above-mentioned preparation process was examining by the following inhibition test of homologous passive cutaneous anaphylaxis (PCA) reaction on rats.
Antiserum was obtained from rats that were immunized with ovalbumin according to the method of Mota [Immunology, 7, 681-699 (1964)]. The antiserum was diluted with physiological saline to make PCA reaction of approximately 10-15 mm in diameter. Groups of 5 male Wistar rats, 8 weeks old and weighing between 200-250 g, were passively sensitized with 0.1 ml of the diluted antiserum injected intradermally in the shaved area on the back. Fourty-eight hours after the sensitization, each above sample dissolved into physiological saline was injected into the rats intravenously via tail vein. Immediately after injection of the sample, rats were challenged with the physiological saline solution containing ovalbumin (25 mg/kg/head) and Evans blue (12.5 mg/kg/head) intravenously via tail vein so as to generate PCA reaction. Thirty minutes after the accomplishment of the challenge, the rats were exsanguinated and removed the skins from the back. The amount of the dye leaked out of the vessels was measured by the method of Katayama et al. [Microbiol. Immunol. 22, 89-101 (1978)].
The effects of samples on PCA reaction were expressed as percentage of inhibition of the leaked amount of the dye calculated by the following equation: [formula] where C is the mean leaked amount of the dye in control group, S is the mean leaked amount of dye in sample treated group. The results of the experiments were shown in Table 1, which included the effect of DSCG used as a positive control.
With `CCOc1cccn2c(C=C(C#N)C(=O)O)c(OC(C)C)nc12` [Sample 4, Sodium salt of 3-(2-carboxy-2-cyanovinyl)-8-ethoxy-2-isopropoxyimidazo[1,2-a]pyridine] the inhibition in vivo at 20 mg/kg was 85.4%.
Work on `CCOc1cccn2c(C=C(C#N)C(=O)O)c(OC(C)CC)nc12` (stereo not drawn) [Sample 9, Sodium salt of 3-(2-carboxy-2-cyanovinyl)-8-ethoxy-2-secbutoxyimidazo[1,2-a]pyridine] yielded an inhibition in vivo at 20 mg/kg of 75.3%.
For `CCC(C)Oc1nc2c(C)cccn2c1C=C(C#N)C(=O)O` (stereo not drawn) [Sample 8, Sodium salt of 3-(2-carboxy-2-cyanovinyl)-8-methyl-2-secbutoxyimidazo[1,2-a]pyridine], the inhibition in vivo at 20 mg/kg was 80.4%.
Molecule `C=CCCOc1nc2c(C)cccn2c1C=C(C#N)C(=O)O` [Sample 12, Sodium salt of 2-(3-butenyloxy)-3-(2-carboxy-2-cyanovinyl)-8-methylimidazo[1,2-a]pyridine] has an inhibition in vivo at 20 mg/kg of 68.9%.
In the case of `Cc1cccn2c(C=C(C#N)C(=O)O)c(OC(C)C)nc12` [Sample 2, Sodium salt of 3-(2-carboxy-2-cyanovinyl)-2-isopropoxy-8-methylimidazo[1,2-a]pyridine], the inhibition in vivo at 20 mg/kg is reported as 68.4%.
In the case of `COc1cccn2c(C=C(C#N)C(=O)O)c(OC(C)C)nc12` [Sample 3, Sodium salt of 3-(2-carboxy-2-cyanovinyl)-2-isopropoxy-8-methoxyimidazo[1,2-a]pyridine], the inhibition in vivo at 20 mg/kg is reported as 90%.
Molecule `CCCCOc1nc2c(C)cccn2c1C=C(C#N)C(=O)O` [Sample 6, Sodium salt of 2-butoxy-3-(2-carboxy-2-cyanovinyl)-8-methylimidazo[1,2-a]pyridine] has an inhibition in vivo at 20 mg/kg of 69.8%.
`COc1nc2ccc(C)cn2c1C=C(C#N)C(=O)O` [Sample 1, Sodium salt of 3-(2-carboxy-2-cyanovinyl)-2-methoxy-6-methylimidazo[1,2-a]pyridine] showed an inhibition in vivo at 20 mg/kg of 52.6%.
`Cc1ccn2c(C=C(C#N)C(=O)O)c(OCC(C)C)nc2c1` [Sample 7, Sodium salt of 3-(2-carboxy-2-cyanovinyl)-2-isobutoxy-7-methylimidazo[1,2-a]pyridine] gave an inhibition in vivo at 20 mg/kg of 65.8%.
For `CCC(C)Oc1nc2c(OC(C)C)cccn2c1C=C(C#N)C(=O)O` (stereo not drawn) [Sample 10, Sodium salt of 3-(2-carboxy-2-cyanovinyl)-8-isopropoxy-2-secbutoxyimidazo[1,2-a]pyridine], the inhibition in vivo at 20 mg/kg was 92.5%.
In the case of `Cc1cccn2c(C=C(C#N)C(=O)O)c(OCC3CC3)nc12` [Sample 15, Sodium salt of 3-(2-carboxy-2-cyanovinyl)-2-cyclopropylmethoxy-8-methylimidazo[1,2-a]pyridine], the inhibition in vivo at 20 mg/kg is reported as 61.8%.
In the case of `COCCOc1nc2c(C)cccn2c1C=C(C#N)C(=O)O` [Sample 16, Sodium salt of 3-(2-carboxy-2-cyanovinyl)-2-(2-methoxyethoxy)-8-methylimidazo[1,2-a]pyridine], the inhibition in vivo at 20 mg/kg is reported as 68.9%.
In the case of `CCCCCCOc1nc2c(C)cccn2c1C=C(C#N)C(=O)O` [Sample 11, Sodium salt of 3-(2-carboxy-2-cyanovinyl)-2-hexyloxy-8-methylimidazo[1,2-a]pyridine], the inhibition in vivo at 20 mg/kg is reported as 75.7%.
`Cc1cccn2c(C=C(C#N)C(=O)O)c(OCCCC#N)nc12` [Sample 17, Sodium salt of 3-(2-carboxy-2-cyanovinyl)-2-(3-cyanoproxy)-8-methylimidazo[1,2-a]pyridine] gave an inhibition in vivo at 20 mg/kg of 71.3%.
`CC(=O)NCCCOc1nc2c(C)cccn2c1C=C(C#N)C(=O)O` [Sample 14, Sodium salt of 2-(3-acetylaminoproxy)-3-(2-carboxy-2-cyanovinyl)-8-methylimidazo[1,2-a]pyridine] showed an inhibition in vivo at 20 mg/kg of 74.8%.
Molecule `CC(C)Oc1nc2c(OC(C)C)cccn2c1C=C(C#N)C(=O)O` [Sample 5, Sodium salt of 3-(2-carboxy-2-cyanovinyl)-2,8-diisopropoxyimidazo[1,2-a]pyridine] has an inhibition in vivo at 20 mg/kg of 94.6%.
`Cc1cccn2c(C=C(C#N)C(=O)O)c(OCCCO)nc12` [Sample 13, Sodium salt of 3-(2-carboxy-2-cyanovinyl)-2-(3-hydroxypropoxy)-8-methylimidazo[1,2-a]pyridine] gave an inhibition in vivo at 20 mg/kg of 64.3%.

Same assay, conditions: Rattus norvegicus, iv, 0.5 h; 10 mg/kg, positive control, rats; **P < 0.005; read-out: Inhibition (%) of leaked amount of dye in PCA reaction
Work on `O=C(O)c1cc(=O)c2c(OCC(O)COc3cccc4oc(C(=O)O)cc(=O)c34)cccc2o1` [DSCG, disodium chromoglycate, reference compound] yielded an inhibition in vivo at 10 mg/kg of 75%.
